Structures can show the parent of a compound that is named as a salt. Where two headings read alike, the source gives them in different places.
Assays:
Format in all cases: biochemical
[1] = molecular target: T1, recombinant human DAO (diamine oxidase) (Homo sapiens, UniProt P19801); assay: Activity evaluation on recombinant human DAO (Amplex Red/HRP-coupled assay, 1 mM putrescine substrate); details: read-out: Inhibitory Activity (IC50, nM) DAO
T1 construct: purchased R&D systems
T1 sequence (P19801 20-751): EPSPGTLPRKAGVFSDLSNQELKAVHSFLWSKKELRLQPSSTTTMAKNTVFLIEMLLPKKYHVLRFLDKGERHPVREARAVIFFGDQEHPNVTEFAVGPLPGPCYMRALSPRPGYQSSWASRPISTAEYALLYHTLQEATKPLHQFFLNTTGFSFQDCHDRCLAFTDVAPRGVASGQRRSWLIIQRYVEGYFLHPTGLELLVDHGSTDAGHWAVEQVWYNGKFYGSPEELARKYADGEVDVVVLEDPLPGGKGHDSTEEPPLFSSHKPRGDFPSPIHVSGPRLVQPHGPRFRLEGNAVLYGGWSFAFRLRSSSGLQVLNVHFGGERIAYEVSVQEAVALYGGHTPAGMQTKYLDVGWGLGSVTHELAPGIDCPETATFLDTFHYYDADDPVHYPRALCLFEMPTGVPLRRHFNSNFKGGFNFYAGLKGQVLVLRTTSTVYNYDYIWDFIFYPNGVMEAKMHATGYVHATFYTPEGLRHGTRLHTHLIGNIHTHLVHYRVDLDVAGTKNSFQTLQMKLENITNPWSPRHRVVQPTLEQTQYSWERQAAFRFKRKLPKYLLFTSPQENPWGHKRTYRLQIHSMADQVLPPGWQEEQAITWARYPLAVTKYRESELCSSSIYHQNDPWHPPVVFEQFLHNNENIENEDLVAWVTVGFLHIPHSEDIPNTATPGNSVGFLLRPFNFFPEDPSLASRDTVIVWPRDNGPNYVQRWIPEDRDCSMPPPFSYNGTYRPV
Outline: (§1)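 8-pt 1:3 dilution series, final DMSO <1%; 30 min 37 °C preincubation w/ enzyme, 50 mM Na phosphate pH 7.4; + 200 uM Amplex Red, 1 U/mL HRP, substrate (MAO-A tyramine 0.5 mM; MAO-B benzylamine 1 mM; DAO putrescine 1 mM); fluor. rate 544/590 nm, 1-2 h; 4-param IC50.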

[2] = molecular target: T2, recombinant human MAO-A (monoamine oxidase-A) (Homo sapiens, UniProt P21397); assay: Activity evaluation on recombinant human MAO-A (Amplex Red/HRP-coupled assay, 0.5 mM tyramine substrate); details: read-out: Inhibitory Activity (IC50, nM) MAO-A
T2 construct: purchased Sigma-Aldrich
T2 sequence (P21397 1-527): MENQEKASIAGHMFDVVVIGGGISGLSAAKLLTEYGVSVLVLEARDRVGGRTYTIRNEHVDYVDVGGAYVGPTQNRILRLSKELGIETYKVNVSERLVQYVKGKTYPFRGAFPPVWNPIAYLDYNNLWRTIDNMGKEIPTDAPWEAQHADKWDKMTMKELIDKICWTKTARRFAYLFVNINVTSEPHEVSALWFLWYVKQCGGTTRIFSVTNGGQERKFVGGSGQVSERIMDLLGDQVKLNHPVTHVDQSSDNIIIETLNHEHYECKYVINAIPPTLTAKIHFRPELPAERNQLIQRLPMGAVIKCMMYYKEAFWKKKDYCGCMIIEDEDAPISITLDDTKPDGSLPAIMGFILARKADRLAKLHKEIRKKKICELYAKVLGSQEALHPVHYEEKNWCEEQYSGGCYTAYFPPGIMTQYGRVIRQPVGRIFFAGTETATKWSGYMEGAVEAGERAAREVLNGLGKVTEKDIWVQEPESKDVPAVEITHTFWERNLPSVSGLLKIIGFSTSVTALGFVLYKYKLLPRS
Outline: as §1

[3] = molecular target: T3, recombinant human MAO-B (monoamine oxidase-B) (Homo sapiens, UniProt P27338); assay: Activity evaluation on recombinant human MAO-B (Amplex Red/HRP-coupled assay, 1 mM benzylamine substrate); details: read-out: Inhibitory Activity (IC50, nM) MAO-B
T3 construct: purchased Sigma-Aldrich
T3 sequence (P27338 1-520): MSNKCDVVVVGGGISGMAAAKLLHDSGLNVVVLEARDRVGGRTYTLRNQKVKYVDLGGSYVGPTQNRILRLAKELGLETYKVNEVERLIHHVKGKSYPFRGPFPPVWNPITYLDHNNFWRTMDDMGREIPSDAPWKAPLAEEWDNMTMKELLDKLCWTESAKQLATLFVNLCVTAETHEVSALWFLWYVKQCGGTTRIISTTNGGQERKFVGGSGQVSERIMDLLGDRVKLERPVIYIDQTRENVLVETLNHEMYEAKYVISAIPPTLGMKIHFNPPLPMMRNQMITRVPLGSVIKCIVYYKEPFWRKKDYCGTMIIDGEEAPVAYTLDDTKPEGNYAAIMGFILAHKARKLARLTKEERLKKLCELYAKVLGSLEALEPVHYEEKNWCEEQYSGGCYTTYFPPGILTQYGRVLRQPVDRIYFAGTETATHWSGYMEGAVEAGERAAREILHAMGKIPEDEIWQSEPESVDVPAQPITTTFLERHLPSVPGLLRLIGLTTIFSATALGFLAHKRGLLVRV
Outline: as §1

recombinant human VAP-1 = molecular target: T4, recombinant human VAP-1 (Homo sapiens, UniProt Q16853); assay: Activity evaluation on recombinant human VAP-1 (Amplex Red/HRP-coupled hydrogen peroxide assay, benzylamine substrate); details: read-out: Inhibitory Activity (IC50, nM) human VAP-1
T4 construct: purchased R&D systems
T4 sequence (Q16853 1-763): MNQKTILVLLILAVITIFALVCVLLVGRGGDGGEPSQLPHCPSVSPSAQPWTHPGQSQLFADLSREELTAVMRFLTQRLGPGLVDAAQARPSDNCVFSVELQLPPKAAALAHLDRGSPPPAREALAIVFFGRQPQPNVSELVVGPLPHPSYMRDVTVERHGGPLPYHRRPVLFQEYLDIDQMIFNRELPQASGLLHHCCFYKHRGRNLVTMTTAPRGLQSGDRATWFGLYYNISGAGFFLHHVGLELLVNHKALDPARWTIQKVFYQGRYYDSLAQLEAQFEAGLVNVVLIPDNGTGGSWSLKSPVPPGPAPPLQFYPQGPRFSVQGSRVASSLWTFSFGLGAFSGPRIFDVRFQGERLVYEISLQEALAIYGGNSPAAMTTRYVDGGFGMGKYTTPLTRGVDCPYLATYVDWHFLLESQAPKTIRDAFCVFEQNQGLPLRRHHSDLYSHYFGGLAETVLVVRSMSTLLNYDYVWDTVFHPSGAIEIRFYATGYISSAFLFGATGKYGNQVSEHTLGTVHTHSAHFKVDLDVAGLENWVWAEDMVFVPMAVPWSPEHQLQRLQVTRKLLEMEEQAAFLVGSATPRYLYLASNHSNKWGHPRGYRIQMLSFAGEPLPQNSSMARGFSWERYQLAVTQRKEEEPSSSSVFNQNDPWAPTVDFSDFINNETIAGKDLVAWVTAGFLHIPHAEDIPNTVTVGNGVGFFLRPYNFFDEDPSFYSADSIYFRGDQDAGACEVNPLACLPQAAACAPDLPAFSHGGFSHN
Outline: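 Hydrogen peroxide from benzylamine (1 mM) oxidation by human recombinant VAP-1 detected via HRP-coupled Amplex Red (200 uM) fluorescence, kinetic over 1–2 h. Enzyme and compound preincubated 30 min at 37 °C, pH 7.4 phosphate; 8-point dose response, signal-rate decrease versus DMSO control fitted to four-parameter logistic for IC50.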

[4] = recombinant human VAP-1, 30 min preincubation at 37° C., 1 mM benzylamine
[5] = recombinant human VAP-1, benzylamine substrate

| Compound | IC50 ([1]; 1 mM putrescine) | IC50 ([2]; 0.5 mM tyramine) | IC50 ([3]; 1 mM benzylamine) | IC50 (recombinant human VAP-1; [4]) | IC50 ([1]; 1 mM putrescine substrate) | IC50 ([2]; 0.5 mM tyramine substrate) | IC50 ([3]; 1 mM benzylamine substrate) | IC50 (recombinant human VAP-1; [5]) |
| --- | --- | --- | --- | --- | --- | --- | --- | --- |
| NCC(Cn1ncn(Cc2ccc(-c3ccc4c(c3)NC(=O)CO4)s2)c1=O)=C(F)F [Example 141, 6-[5-[[1-[2-(aminomethyl)-3,3-difluoro-allyl]-5-oxo-1,2,4-triazol-4-yl]methyl]-2-thienyl]-4H-1,4-benzoxazin-3-one Trifluoroacetate] | 16000 nM | 8100 nM | 20000 nM | 0.6 nM |  |  |  |  |
| NCC(Cn1ncn(-c2cccc(-c3ccc4c(c3)OCO4)c2)c1=O)=C(F)F [Example 21, 2-[2-(aminomethyl)-3,3-difluoro-allyl]-4-[3-(1,3-benzodioxol-5-yl)phenyl]-1,2,4-triazol-3-one Trifluoroacetate] | 6300 nM | 36200 nM | 18000 nM | 2.5 nM |  |  |  |  |
| CN1C(=O)CCc2cc(-c3cc(-n4cnn(CC(CN)=C(F)F)c4=O)ccn3)ccc21 [Example 66, 6-[4-[1-[2-(aminomethyl)-3,3-difluoro-allyl]-5-oxo-1,2,4-triazol-4-yl]-2-pyridyl]-1-methyl-3,4-dihydroquinolin-2-one Trifluoroacetate] | 250 nM | > 100000 nM | 4800 nM | 0.6 nM |  |  |  |  |
| CCn1cc(-c2cccc(Cn3cnn(CC(CN)=C(F)F)c3=O)c2)ccc1=O [Example 277, 5-[3-[[1-[2-(aminomethyl)-3,3-difluoro-allyl]-5-oxo-1,2,4-triazol-4-yl]methyl]phenyl]-1-ethyl-pyridin-2-one Trifluoroacetate] |  |  |  |  | 1810 nM | > 100000 nM | 68600 nM | 2.5 nM |
| COCCNc1ncc(-c2cnc(-n3cnn(CC(CN)=C(F)F)c3=O)c(C)c2)cn1 [Example 222, 2-[2-(aminomethyl)-3,3-difluoro-allyl]-4-[5-[2-(2-methoxyethylamino)pyrimidin-5-yl]-3-methyl-2-pyridyl]-1,2,4-triazol-3-one Trifluoroacetate] |  |  |  |  | 4000 nM | > 100000 nM | > 100000 nM | 1 nM |
| CS(=O)(=O)c1ccc(-c2cnc(-n3cnn(CC(CN)=C(F)F)c3=O)cn2)cc1 [Example 89, 2-[2-(aminomethyl)-3,3-difluoro-allyl]-4-[5-(4-methylsulfonylphenyl)-pyrazin-2-yl]-1,2,4-triazol-3-one Trifluoroacetate] | 2 nM | > 100000 nM | 1900 nM | 0.6 nM |  |  |  |  |
| CN1C(=O)CCc2cc(-c3cnc(-n4cnn(CC(CN)=C(F)F)c4=O)cn3)ccc21 [Example 94, 6-[5-[1-[2-(aminomethyl)-3,3-difluoro-allyl]-5-oxo-1,2,4-triazol-4-yl]pyrazin-2-yl]-1-methyl-3,4-dihydro-1H-quinolin-2-one Trifluoroacetate] | 4 nM | > 100000 nM | 860 nM | 0.2 nM |  |  |  |  |
| Cc1cc(C#Cc2ccc(N3CCOCC3)nc2)cnc1-n1cnn(CC(CN)=C(F)F)c1=O [Example 242, 2-[2-(aminomethyl)-3,3-difluoro-allyl]-4-[3-methyl-5-[2-(6-morpholino-3-pyridyl)ethynyl]-2-pyridyl]-1,2,4-triazol-3-one Trifluoroacetate] |  |  |  |  | 4200 nM | > 100000 nM | 29000 nM | 1 nM |
| Cc1cc(-c2ccnc(-n3cnn(CC(CN)=C(F)F)c3=O)c2)cc2c1NC(=O)CC2 [Example 59, 6-[2-[1-[2-(aminomethyl)-3,3-difluoro-allyl]-5-oxo-1,2,4-triazol-4-yl]-4-pyridyl]-8-methyl-3,4-dihydro-1H-quinolin-2-one Trifluoroacetate] | 84 nM | > 100000 nM | > 100000 nM | 0.5 nM |  |  |  |  |
| NCC(Cn1ncn(Cc2cc3ccc(-c4ccc5c(c4)OCO5)cc3s2)c1=O)=C(F)F [Example 201, 2-[2-(aminomethyl)-3,3-difluoro-allyl]-4-[[6-(1,3-benzodioxol-5-yl)benzothiophen-2-yl]methyl]-1,2,4-triazol-3-one Trifluoroacetate] |  |  |  |  | 27000 nM | 90800 nM | 2000 nM | 2.8 nM |
| CCn1cc(-c2ccc(-c3ccc(Cn4cnn(CC(CN)=C(F)F)c4=O)s3)cc2)cn1 [Example 286, 2-[2-(aminomethyl)-3,3-difluoro-allyl]-4-[[5-[4-(1-ethylpyrazol-4-yl)phenyl]-2-thienyl]methyl]-1,2,4-triazol-3-one Trifluoroacetate] |  |  |  |  | 2480 nM | 2620 nM | 3230 nM | 1.4 nM |
| NCC(Cn1ncn(-c2ccc(Br)cc2F)c1=O)=C(F)F [Example 5, 2-[2-(aminomethyl)-3,3-difluoro-allyl]-4-(4-bromo-2-fluoro-phenyl)-1,2,4-triazol-3-one Trifluoroacetate] | 67000 nM | > 100000 nM | 4900 nM | 2.5 nM |  |  |  |  |
| COc1cc(-c2cnc(-n3cnn(CC(CN)=C(F)F)c3=O)c(C)c2)cc(OC)c1OC [Example 224, 2-[2-(aminomethyl)-3,3-difluoro-allyl]-4-[3-methyl-5-(3,4,5-trimethoxyphenyl)-2-pyridyl]-1,2,4-triazol-3-one Trifluoroacetate] |  |  |  |  | 5500 nM | > 100000 nM | 1900 nM | 0.8 nM |
